Data as given in patent US20160067255A1, “METHODS OF TREATING OR PREVENTING HIV IN PATIENTS USING A COMBINATION OF TENOFOVIR ALAFENAMIDE AND DOLUTEGRAVIR” (priority 2014, published 2016).

Test: Oral pharmacokinetics of TAF alone or in combination with dolutegravir in male beagle dogs (plasma, LC/MS)
Details: dog; for half-life: T1/2 (estimated terminal elimination half-life)
Protocol: TAF was dosed at 5 mg/kg (as free base) orally in solution to fasted male beagle dogs (N=6 animals, mean weight 10 kg). On Day 1, TAF was administered alone. On days 2, 3, 4 and 5, 3 mg/kg of Dolutegravir (DTG) was administered alone (as free acid). Both compounds were administered on Day 6. The plasma pharmacokinetic profiles of TAF and its nucleotide metabolite tenofovir (TFV) were determined by LC/MS in samples taken on Day 1 and Day 6 of dosing.
The oral dosing formulation for TAF was 0.1% Hydroxypropylmethylcellulose K100LV, 0.1% Polysorbate 20, 99.8% deionized water. For dolutegravir, the oral dosing formulation was 0.5% Hydroxypropylmethylcellulose LV 100 and 0.1% Tween 20 in deionized water.
The animals were fasted overnight prior to each dose administration and up to 4 hr after dosing. The blood samples were collected on days 1 and 6 predose and at the following time points following dosing: 0.25, 0.5, 1, 2, 4, 6, 8, 12 and 24 hour. The blood samples were collected into Vacutainer™ tubes containing Sodium Fluoride/Potassium Oxalate (BD Biosciences). The blood samples were centrifuged at 4° C. to separate plasma. Plasma samples were frozen and stored in −70° C. freezers.
Plasma was prepared by protein precipitation by adding acetonitrile to a final concentration of 70% in the presence of internal standard. Following filtration to remove precipitated protein, samples were evaporated, reconstituted with mobile phase A (0.2% formate in water) and analyzed using injections of 5 μl for analysis.

[1] = Day 6 (TAF + DTG) versus Day 1 (TAF alone)
[2] = male, beagle, in vivo, po, 5 mg/kg, TAF in plasma, Day 1, TAF 5 mg/kg oral alone, fasted male beagle dogs, mean n=6
[3] = male, beagle, in vivo, po, 5 mg/kg, TAF in plasma, Day 6, TAF 5 mg/kg oral co-administered with DTG 3 mg/kg after 4 daily doses of DTG, male beagle dogs, mean n=6
[4] = male, beagle, in vivo, po, 5 mg/kg

Row | TFV levels in Day 1 pre-dose plasma samples (male, beagle, in vivo) [nM] | AUC(0-t) [4] [µM·h] | AUC(0-inf) (male, beagle, in vivo, po, 5 mg/kg, AUC0-inf) [µM·h] | Cmax [4] [nM] | half-life [4] [min] | Tmax [4] [min] | SMILES | increase of maximal concentrations (Cmax) of TAF upon coadministration with DTG [1] | increase of oral exposure of TAF upon coadministration with DTG [1] | AUC(0-t) (male, beagle, in vivo, po, 5 mg/kg, AUC0-24hr, TAF in plasma, Day 1, TAF 5 mg/kg oral alone, fasted male beagle dogs, mean n=6) [µM·h] | AUC(0-t) (male, beagle, in vivo, po, 5 mg/kg, AUC0-24hr, TAF in plasma, Day 6, TAF 5 mg/kg oral co-administered with DTG 3 mg/kg after 4 daily doses of DTG, male beagle dogs, mean n=6) [µM·h] | Cmax [2] [nM] | Cmax [3] [nM] | half-life [2] [min] | Tmax [2] [min] | Tmax [3] [min]
1 |  |  |  |  |  |  | CC(C)OC(=O)[C@H](C)N[P@](=O)(CO[C@H](C)Cn1cnc2c(N)ncnc21)Oc1ccccc1 [TAF, 9-[(R)-2-[[(S)-[[(S)-1-(isopropoxycarbonyl)ethyl]amino]phenoxyphosphinyl]-methoxy]propyl]adenine] | approximately 2 fold | approximately 2 fold | 0.174 | 0.345 | 412 | 818 | 11.4 | 17.4 | 15
2 | < 10 | 1.6 | 2.92 | 253 | 1500 | 75 | C[C@H](Cn1cnc2c(N)ncnc21)OCP(=O)(O)O [TFV, Tenofovir] |  |  |  |  |  |  |  |  | 
